Measured values from PMC8318231, “Rate-of-Kill (RoK) assays to triage large compound sets for Chagas disease drug discovery: Application to GSK Chagas Box” (PLoS Neglected Tropical Diseases, 2021).

Experiments:
[1] = system: T. cruzi Tulahuen trypomastigotes; assay: T. cruzi trypomastigote assay (Cell Titer-Glo viability, ATP luminescence); assay type: cell-based, Trypanosoma cruzi; details: for Trypomastigotes pIC50 48 hours: 48 hours incubation; for Trypomastigotes pIC50 48 hours / Trypomastigotes pIC50 72 hours: pIC50 = -log10 IC50 in molar units; for Trypomastigotes pIC50 72 hours: 72 hours incubation; for 48 pIC50 / 72 pIC50: trypomastigote assay; for 48 pIC50: 48 h; for 72 pIC50: 72 h
Protocol: T. cruzi Tulahuen trypomastigotes obtained from the supernatants of LLC-MK2 infected cultures in a 225 cm^2 T-Flasks harvested between days 5 and 8 of infection. Trypomastigotes (5 × 10^4 per well) in 50 μl of DMEM/ 2% FBS were dispensed into white 384 plates (Greiner) pre-stamped with 250 nl compound a single-shot final concentration of 5 μM, or in dose response. […] Cell Titer-Glo cell viability solution (Promega) was added to each well (50 μL) incubated at room temperature for 10 min and luminescence read by Envision plate reader (Perkin Elmer). This assay quantifies the amount of ATP present which is directly proportional to the number of metabolically active cells. All data were normalised (100% effect control for no cells and 0% effect control for DMSO). This assay was adapted from MacLean et al., 2018 [22].

TcCYP51 = details: formerly reported; cited from earlier work

Compound: COc1ccc(C)cc1-c1csc(NC(=O)C(C)n2ccnc2)n1 (stereo not drawn) [TCMDC-143430]
- Trypomastigotes pIC50 48 hours [1]: < 4.3
- Trypomastigotes pIC50 72 hours [1]: < 4.3
- 48 pIC50 ([1]; figure 1A): < 4.3
- 72 pIC50 ([1]; figure 1A): < 4.3
- 72 pIC50 ([1]; figure 1B): < 4.3
- CYP51 pIC50 (TcCYP51): 7.4

Compound: COc1ccc2nc(N(Cc3cccnc3)C(=O)C3CCC3)sc2c1 [TCMDC-143437]
- Trypomastigotes pIC50 48 hours [1]: < 4.3
- Trypomastigotes pIC50 72 hours [1]: < 4.3
- 48 pIC50 ([1]; figure 1A): < 4.3
- 72 pIC50 ([1]; figure 1A): < 4.3
- 72 pIC50 ([1]; figure 1B): < 4.3
- CYP51 pIC50 (TcCYP51): 7.2

Compound: c1cncc(CN(Cc2ccco2)Cc2cn[nH]c2-c2cccs2)c1 [TCMDC-143440]
- Trypomastigotes pIC50 48 hours [1]: 4.4
- Trypomastigotes pIC50 72 hours [1]: < 4.3
- CYP51 pIC50 (TcCYP51): 7.1

Compound: O=C(NCc1nnc2n1CCCCC2)c1ccc(-c2ccc(F)cc2)o1 [TCMDC-143446]
- Trypomastigotes pIC50 48 hours [1]: < 4.3
- Trypomastigotes pIC50 72 hours [1]: 4.7
- CYP51 pIC50 (TcCYP51): 4.1

Compound: c1cc(-c2ncc(-c3ccn[nH]3)s2)ccn1 [TCMDC-143461]
- Trypomastigotes pIC50 48 hours [1]: < 4.3
- Trypomastigotes pIC50 72 hours [1]: < 4.3
- 48 pIC50 ([1]; figure 1A): < 4.3
- 72 pIC50 ([1]; figure 1A): < 4.3
- 72 pIC50 ([1]; figure 1B): < 4.3
- CYP51 pIC50 (TcCYP51): 7.4

Compound: CNc1cncc(C2CCCN2C(=O)Cc2coc3cc(C)ccc23)n1 (stereo not drawn) [TCMDC-143464]
- Trypomastigotes pIC50 48 hours [1]: < 4.3
- Trypomastigotes pIC50 72 hours [1]: < 4.3
- 48 pIC50 ([1]; figure 1A): < 4.3
- 72 pIC50 ([1]; figure 1A): < 4.3
- 72 pIC50 ([1]; figure 1B): < 4.3
- CYP51 pIC50 (TcCYP51): 7.6

Compound: CNc1cncc(C2CCCN2C(=O)Cc2ccc3ccccc3c2)n1 (stereo not drawn) [TCMDC-143465]
- Trypomastigotes pIC50 48 hours [1]: < 4.3
- Trypomastigotes pIC50 72 hours [1]: < 4.3
- 48 pIC50 ([1]; figure 1A): < 4.3
- 72 pIC50 ([1]; figure 1A): < 4.3
- 72 pIC50 ([1]; figure 1B): < 4.3
- CYP51 pIC50 (TcCYP51): 7

Compound: O=C(NCCc1nc(-c2ccc(F)c(F)c2)n[nH]1)C1CCCCC1 [TCMDC-143466]
- Trypomastigotes pIC50 48 hours [1]: < 4.3
- Trypomastigotes pIC50 72 hours [1]: 4.5
- CYP51 pIC50 (TcCYP51): 4.6

Compound: COc1ccc(CN2CCCCC2c2nc(-c3cccnc3)no2)cc1 (stereo not drawn) [TCMDC-143467]
- Trypomastigotes pIC50 48 hours [1]: < 4.3
- Trypomastigotes pIC50 72 hours [1]: < 4.3
- 48 pIC50 ([1]; figure 1A): < 4.3
- 72 pIC50 ([1]; figure 1A): < 4.3
- 72 pIC50 ([1]; figure 1B): < 4.3
- CYP51 pIC50 (TcCYP51): 6.7

Compound: COc1ccc(C(=O)N2CCC(Nc3cccnc3)C2)c(OC)n1 (stereo not drawn) [TCMDC-143474]
- Trypomastigotes pIC50 48 hours [1]: < 4.3
- Trypomastigotes pIC50 72 hours [1]: < 4.3
- 48 pIC50 ([1]; figure 1A): < 4.3
- 72 pIC50 ([1]; figure 1A): < 4.3
- 72 pIC50 ([1]; figure 1B): < 4.3
- CYP51 pIC50 (TcCYP51): 7.2

Compound: CC(Cn1ccnc1)NC(=O)COc1ccc(Cl)c(Cl)c1 (stereo not drawn) [TCMDC-143479]
- Trypomastigotes pIC50 48 hours [1]: < 4.3
- Trypomastigotes pIC50 72 hours [1]: < 4.3
- 48 pIC50 ([1]; figure 1A): < 4.3
- 72 pIC50 ([1]; figure 1A): < 4.3
- 72 pIC50 ([1]; figure 1B): < 4.3
- CYP51 pIC50 (TcCYP51): 7.2

Compound: O=C(c1cnn(-c2ccccc2)n1)N1CCCC(n2ccnc2)C1 (stereo not drawn) [TCMDC-143492]
- Trypomastigotes pIC50 48 hours [1]: < 4.3
- Trypomastigotes pIC50 72 hours [1]: < 4.3
- 48 pIC50 ([1]; figure 1A): < 4.3
- 72 pIC50 ([1]; figure 1A): < 4.3
- 72 pIC50 ([1]; figure 1B): < 4.3
- CYP51 pIC50 (TcCYP51): 7.1

Compound: Cc1ccccc1OCC(=O)N1CCCN(c2cccnn2)CC1 [TCMDC-143495]
- Trypomastigotes pIC50 48 hours [1]: < 4.3
- Trypomastigotes pIC50 72 hours [1]: < 4.3
- 48 pIC50 ([1]; figure 1A): < 4.3
- 72 pIC50 ([1]; figure 1A): < 4.3
- 72 pIC50 ([1]; figure 1B): < 4.3
- CYP51 pIC50 (TcCYP51): 7.1

Compound: CC(Cn1ccnc1)NC(=O)C1CC1c1cccc(Cl)c1Cl (stereo not drawn) [TCMDC-143506]
- Trypomastigotes pIC50 48 hours [1]: < 4.3
- Trypomastigotes pIC50 72 hours [1]: < 4.3
- 48 pIC50 ([1]; figure 1A): < 4.3
- 72 pIC50 ([1]; figure 1A): < 4.3
- 72 pIC50 ([1]; figure 1B): < 4.3
- CYP51 pIC50 (TcCYP51): 6.9

Compound: COc1ccc2ncc(F)c(NC(=O)[C@]3(O)CC[C@@H](NCc4ccc5c(c4)OCCO5)CC3)c2n1.Cl [TCMDC-143507]
- Trypomastigotes pIC50 48 hours [1]: 4.4
- Trypomastigotes pIC50 72 hours [1]: 4.4
- 48 pIC50 ([1]; figure 1A): 4.4
- 72 pIC50 ([1]; figure 1A): 4.4
- 72 pIC50 ([1]; figure 1B): 4.4
- CYP51 pIC50 (TcCYP51): 4.2

Compound: O=C(Cn1cnc2cc([N+](=O)[O-])ccc2c1=O)NCCc1ccc(Cl)cc1Cl [TCMDC-143519]
- Trypomastigotes pIC50 48 hours [1]: 5.9
- Trypomastigotes pIC50 72 hours [1]: 6.1
- CYP51 pIC50 (TcCYP51): < 4

Compound: O=c1ccn(-c2ccc([N+](=O)[O-])cc2Cl)c2ccc(F)cc12 [TCMDC-143520]
- Trypomastigotes pIC50 48 hours [1]: < 4.3
- Trypomastigotes pIC50 72 hours [1]: < 4.3
- 48 pIC50 ([1]; figure 1A): < 4.3
- 72 pIC50 ([1]; figure 1A): < 4.3
- 72 pIC50 ([1]; figure 1B): < 4.3
- CYP51 pIC50 (TcCYP51): 4.8

Compound: COc1ccc2nccc([C@H](O)CN3CC[C@H](NC(=O)c4ccc(Br)cc4)[C@@H](O)C3)c2n1 [TCMDC-143527]
- Trypomastigotes pIC50 48 hours [1]: < 4.3
- Trypomastigotes pIC50 72 hours [1]: < 4.3
- 48 pIC50 ([1]; figure 1A): < 4.3
- 72 pIC50 ([1]; figure 1A): < 4.3
- 72 pIC50 ([1]; figure 1B): < 4.3
- CYP51 pIC50 (TcCYP51): 5.2

Compound: COc1ccc([N+](=O)[O-])cc1NC(=O)Nc1cccc(Cl)c1 [TCMDC-143528]
- Trypomastigotes pIC50 48 hours [1]: 5.6
- Trypomastigotes pIC50 72 hours [1]: < 4.3
- CYP51 pIC50 (TcCYP51): < 4

Compound: O=C(Nc1cccc(Cl)c1)N1CCCCC1c1cccnc1 (stereo not drawn) [TCMDC-143529]
- Trypomastigotes pIC50 48 hours [1]: < 4.3
- Trypomastigotes pIC50 72 hours [1]: < 4.3
- 48 pIC50 ([1]; figure 1A): < 4.3
- 72 pIC50 ([1]; figure 1A): < 4.3
- 72 pIC50 ([1]; figure 1B): < 4.3
- CYP51 pIC50 (TcCYP51): 7.7

Compound: Cc1ccc(C)c(-n2nnnc2Sc2nc([N+](=O)[O-])nn2C)c1 [TCMDC-143530]
- Trypomastigotes pIC50 48 hours [1]: 5.3
- Trypomastigotes pIC50 72 hours [1]: 5.4
- CYP51 pIC50 (TcCYP51): < 4

Compound: Cc1ccc(S(=O)(=O)Cn2nnnc2C(c2cccnc2)N2CCN(c3ccccc3)CC2)cc1 (stereo not drawn) [TCMDC-143539]
- Trypomastigotes pIC50 48 hours [1]: < 4.3
- Trypomastigotes pIC50 72 hours [1]: < 4.3
- 48 pIC50 ([1]; figure 1A): < 4.3
- 72 pIC50 ([1]; figure 1A): < 4.3
- 72 pIC50 ([1]; figure 1B): < 4.3
- CYP51 pIC50 (TcCYP51): 6.7

Compound: Cc1cc(C#N)c([N+](=O)[O-])cc1Br [TCMDC-143541]
- Trypomastigotes pIC50 48 hours [1]: 5.8
- Trypomastigotes pIC50 72 hours [1]: 5.5
- CYP51 pIC50 (TcCYP51): 5.1

Compound: O=S(=O)(NCC(c1cccnc1)N1CCN(c2ccc(F)cc2)CC1)c1cccs1 (stereo not drawn) [TCMDC-143542]
- Trypomastigotes pIC50 48 hours [1]: < 4.3
- Trypomastigotes pIC50 72 hours [1]: < 4.3
- 48 pIC50 ([1]; figure 1A): < 4.3
- 72 pIC50 ([1]; figure 1A): < 4.3
- 72 pIC50 ([1]; figure 1B): < 4.3
- CYP51 pIC50 (TcCYP51): 7.4

Compound: CC(C(=O)Nc1ccc(Br)cc1)N1CCN(c2ccc([N+](=O)[O-])cc2)CC1 (stereo not drawn) [TCMDC-143545]
- Trypomastigotes pIC50 48 hours [1]: < 4.3
- Trypomastigotes pIC50 72 hours [1]: < 4.3
- 48 pIC50 ([1]; figure 1A): < 4.3
- 72 pIC50 ([1]; figure 1A): < 4.3
- 72 pIC50 ([1]; figure 1B): < 4.3
- CYP51 pIC50 (TcCYP51): 4.4

Compound: Cc1cc2ncn(-c3ccc([N+](=O)[O-])cc3C#N)c2cc1C [TCMDC-143546]
- Trypomastigotes pIC50 48 hours [1]: 5.7
- Trypomastigotes pIC50 72 hours [1]: 5.9
- CYP51 pIC50 (TcCYP51): < 4

Compound: Cc1ccc2nc(N(Cc3cccnc3)C(=O)CCc3ccccc3)sc2c1 [TCMDC-143553]
- Trypomastigotes pIC50 48 hours [1]: 4.7
- Trypomastigotes pIC50 72 hours [1]: < 4.3
- CYP51 pIC50 (TcCYP51): 7.2

Compound: O=C(Nc1cccc(F)c1)N1CCC(Oc2cccc(-c3cccnc3)c2)CC1 [TCMDC-143555]
- Trypomastigotes pIC50 48 hours [1]: < 4.3
- Trypomastigotes pIC50 72 hours [1]: < 4.3
- 48 pIC50 ([1]; figure 1A): < 4.3
- 72 pIC50 ([1]; figure 1A): < 4.3
- 72 pIC50 ([1]; figure 1B): < 4.3
- CYP51 pIC50 (TcCYP51): 6.8

Compound: O=[N+]([O-])c1cccc(Nc2cncc(-c3ccccc3CO)c2)c1 [TCMDC-143559]
- Trypomastigotes pIC50 48 hours [1]: < 4.3
- Trypomastigotes pIC50 72 hours [1]: < 4.3
- 48 pIC50 ([1]; figure 1A): < 4.3
- 72 pIC50 ([1]; figure 1A): < 4.3
- 72 pIC50 ([1]; figure 1B): < 4.3
- CYP51 pIC50 (TcCYP51): 5.5
